Measurements reported in ChEMBL document CHEMBL4507280 (2021).

Experiments:
[1] = target: Serine/threonine-protein kinase Chk2 (Homo sapiens) (UniProt O96017); details: Compound concentration 1000.0 nM
[2] = target: Serine/threonine-protein kinase PRP4 homolog (Homo sapiens) (UniProt Q13523); details: Compound concentration 1000.0 nM
[3] = target: Proto-oncogene tyrosine-protein kinase Src (Homo sapiens) (UniProt P12931); details: Compound concentration 1000.0 nM
[4] = target: Myosin light chain kinase, smooth muscle (Homo sapiens) (UniProt Q15746); details: Compound concentration 1000.0 nM
[5] = target: Protein kinase C delta type (Homo sapiens) (UniProt Q05655); details: Compound concentration 1000.0 nM
[6] = target: Serine/threonine-protein kinase RIO1 (Homo sapiens) (UniProt Q9BRS2); details: Compound concentration 1000.0 nM
[7] = target: Calcium/calmodulin-dependent protein kinase type 1B (Homo sapiens) (UniProt Q6P2M8); details: Compound concentration 1000.0 nM
[8] = tested on: Tyrosine-protein kinase ABL1 (Homo sapiens), P00519 [T315I]; details: Compound concentration 1000.0 nM
[9] = target: Phosphatidylinositol 5-phosphate 4-kinase type-2 beta (Homo sapiens) (UniProt P78356); details: Compound concentration 1000.0 nM
[10] = target: Sigma intracellular receptor 2 (Homo sapiens, UniProt Q5BJF2); details: Compound concentration 10.0 uM
Sigma intracellular receptor 2, sequence (Q5BJF2 whole entry): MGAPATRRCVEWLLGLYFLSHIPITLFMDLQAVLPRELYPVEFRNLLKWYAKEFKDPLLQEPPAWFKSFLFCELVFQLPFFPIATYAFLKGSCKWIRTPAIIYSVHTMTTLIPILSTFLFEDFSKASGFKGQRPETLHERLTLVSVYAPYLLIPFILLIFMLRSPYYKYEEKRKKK

[11] = target: Rho-associated protein kinase 1 (Homo sapiens) (UniProt Q13464); details: Compound concentration 1000.0 nM
[12] = target: Serine/threonine-protein kinase Nek5 (Homo sapiens) (UniProt Q6P3R8); details: Compound concentration 1000.0 nM
[13] = target: Ankyrin repeat and protein kinase domain-containing protein 1 (Homo sapiens) (UniProt Q8NFD2); details: Compound concentration 1000.0 nM
Ankyrin repeat and protein kinase domain-containing protein 1 (Homo sapiens), sequence (Q8NFD2 whole entry, the tested form may be a part): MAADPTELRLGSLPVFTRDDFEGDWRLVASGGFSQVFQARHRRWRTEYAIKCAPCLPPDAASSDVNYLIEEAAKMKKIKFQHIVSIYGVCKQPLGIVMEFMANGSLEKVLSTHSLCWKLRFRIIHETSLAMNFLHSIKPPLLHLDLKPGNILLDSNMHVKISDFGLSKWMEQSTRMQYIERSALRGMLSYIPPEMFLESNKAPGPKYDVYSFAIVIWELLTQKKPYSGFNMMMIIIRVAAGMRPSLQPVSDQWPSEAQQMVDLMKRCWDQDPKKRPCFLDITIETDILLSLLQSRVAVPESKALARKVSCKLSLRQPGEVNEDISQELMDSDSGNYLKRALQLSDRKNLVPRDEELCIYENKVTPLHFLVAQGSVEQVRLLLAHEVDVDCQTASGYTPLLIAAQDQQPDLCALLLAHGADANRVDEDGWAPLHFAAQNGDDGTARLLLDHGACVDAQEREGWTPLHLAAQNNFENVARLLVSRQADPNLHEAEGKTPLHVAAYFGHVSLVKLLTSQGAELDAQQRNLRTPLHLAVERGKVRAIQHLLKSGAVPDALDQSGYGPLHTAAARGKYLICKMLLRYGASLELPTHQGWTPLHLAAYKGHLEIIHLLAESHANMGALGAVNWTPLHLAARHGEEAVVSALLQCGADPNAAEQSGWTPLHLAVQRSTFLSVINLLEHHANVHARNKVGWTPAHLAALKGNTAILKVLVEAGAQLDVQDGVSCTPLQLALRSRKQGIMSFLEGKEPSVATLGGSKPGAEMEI

[14] = target: Leukocyte tyrosine kinase receptor (Homo sapiens) (UniProt P29376); details: Compound concentration 1000.0 nM
[15] = target: Cyclin-dependent kinase 15 (Homo sapiens) (UniProt Q96Q40); details: Compound concentration 1000.0 nM
[16] = target: SNF-related serine/threonine-protein kinase (Homo sapiens) (UniProt Q9NRH2); details: Compound concentration 1000.0 nM
SNF-related serine/threonine-protein kinase (Homo sapiens), sequence (Q9NRH2 whole entry): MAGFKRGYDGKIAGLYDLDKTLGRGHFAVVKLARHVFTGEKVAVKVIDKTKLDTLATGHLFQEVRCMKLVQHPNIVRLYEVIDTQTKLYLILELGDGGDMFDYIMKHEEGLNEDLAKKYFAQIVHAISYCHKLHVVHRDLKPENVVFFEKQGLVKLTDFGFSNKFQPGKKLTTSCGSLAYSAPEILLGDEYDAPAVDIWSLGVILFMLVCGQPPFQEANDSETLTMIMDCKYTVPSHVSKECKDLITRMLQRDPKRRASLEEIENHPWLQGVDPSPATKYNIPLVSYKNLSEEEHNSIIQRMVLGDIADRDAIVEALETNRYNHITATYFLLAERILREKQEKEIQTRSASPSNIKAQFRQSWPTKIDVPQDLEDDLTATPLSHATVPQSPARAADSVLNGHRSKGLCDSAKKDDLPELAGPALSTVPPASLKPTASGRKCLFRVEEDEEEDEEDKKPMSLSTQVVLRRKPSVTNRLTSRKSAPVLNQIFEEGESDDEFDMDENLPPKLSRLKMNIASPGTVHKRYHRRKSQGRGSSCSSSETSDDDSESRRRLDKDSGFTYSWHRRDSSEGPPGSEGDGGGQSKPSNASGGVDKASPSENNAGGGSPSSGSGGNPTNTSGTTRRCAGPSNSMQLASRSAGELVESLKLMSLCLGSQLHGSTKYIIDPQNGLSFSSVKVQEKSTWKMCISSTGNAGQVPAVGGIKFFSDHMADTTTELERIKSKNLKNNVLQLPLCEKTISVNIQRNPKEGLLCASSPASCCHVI

[17] = target: 3-phosphoinositide-dependent protein kinase 1 (Homo sapiens) (UniProt O15530); details: Compound concentration 1000.0 nM
[18] = tested on: Phosphatidylinositol 4,5-bisphosphate 3-kinase catalytic subunit alpha isoform (Homo sapiens), P42336 [I800L]; details: Compound concentration 1000.0 nM
[19] = target: Tyrosine-protein kinase Srms (Homo sapiens) (UniProt Q9H3Y6); details: Compound concentration 1000.0 nM
[20] = target: Serine/threonine-protein kinase DCLK1 (Homo sapiens) (UniProt O15075); details: Compound concentration 1000.0 nM
[21] = target: Serine/threonine-protein kinase PAK 1 (Homo sapiens) (UniProt Q13153); details: Compound concentration 1000.0 nM
[22] = target: Maternal embryonic leucine zipper kinase (Homo sapiens) (UniProt Q14680); details: Compound concentration 1000.0 nM
Maternal embryonic leucine zipper kinase (Homo sapiens), sequence (Q14680 whole entry, looked up): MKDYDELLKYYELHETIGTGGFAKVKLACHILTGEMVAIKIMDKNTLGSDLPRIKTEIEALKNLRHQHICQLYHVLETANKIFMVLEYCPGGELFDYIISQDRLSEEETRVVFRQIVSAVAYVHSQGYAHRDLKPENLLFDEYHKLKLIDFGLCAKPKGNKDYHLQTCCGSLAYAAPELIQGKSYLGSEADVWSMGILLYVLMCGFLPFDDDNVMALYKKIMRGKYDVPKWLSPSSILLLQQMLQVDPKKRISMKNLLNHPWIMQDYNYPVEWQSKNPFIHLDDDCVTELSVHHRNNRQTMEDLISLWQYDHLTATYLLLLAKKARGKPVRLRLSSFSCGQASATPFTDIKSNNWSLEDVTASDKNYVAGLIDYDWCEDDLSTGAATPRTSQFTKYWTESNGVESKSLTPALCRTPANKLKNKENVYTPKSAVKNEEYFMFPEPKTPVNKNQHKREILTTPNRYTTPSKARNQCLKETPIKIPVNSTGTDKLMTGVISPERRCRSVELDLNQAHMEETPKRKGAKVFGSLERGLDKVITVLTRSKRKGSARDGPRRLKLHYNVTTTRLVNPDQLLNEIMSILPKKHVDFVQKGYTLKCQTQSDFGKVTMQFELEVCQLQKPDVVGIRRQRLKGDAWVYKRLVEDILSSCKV

[23] = target: Cyclin-dependent kinase 14 (Homo sapiens) (UniProt O94921); details: Compound concentration 1000.0 nM
[24] = target: Serine/threonine-protein kinase WNK2 (Homo sapiens) (UniProt Q9Y3S1); details: Compound concentration 1000.0 nM
[25] = target: Serine/threonine-protein kinase Nek7 (Homo sapiens) (UniProt Q8TDX7); details: Compound concentration 1000.0 nM
[26] = target: Serine/threonine-protein kinase PLK3 (Homo sapiens) (UniProt Q9H4B4); details: Compound concentration 1000.0 nM
[27] = target: Dual specificity protein kinase CLK1 (Homo sapiens) (UniProt P49759); details: Compound concentration 1000.0 nM
Dual specificity protein kinase CLK1 (Homo sapiens), sequence (P49759 whole entry, looked up): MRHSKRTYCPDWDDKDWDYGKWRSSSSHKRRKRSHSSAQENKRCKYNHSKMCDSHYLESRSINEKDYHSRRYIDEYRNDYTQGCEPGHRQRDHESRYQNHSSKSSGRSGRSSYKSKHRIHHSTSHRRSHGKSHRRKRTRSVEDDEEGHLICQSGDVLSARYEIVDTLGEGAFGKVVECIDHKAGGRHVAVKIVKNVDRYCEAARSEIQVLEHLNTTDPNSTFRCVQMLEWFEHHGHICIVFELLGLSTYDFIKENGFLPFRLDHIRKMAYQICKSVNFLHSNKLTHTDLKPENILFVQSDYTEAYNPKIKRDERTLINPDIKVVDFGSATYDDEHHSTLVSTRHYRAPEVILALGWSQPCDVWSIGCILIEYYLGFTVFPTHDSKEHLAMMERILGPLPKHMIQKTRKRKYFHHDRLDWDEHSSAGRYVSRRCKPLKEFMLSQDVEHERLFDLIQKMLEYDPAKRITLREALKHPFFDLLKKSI

[28] = target: Tyrosine-protein kinase JAK1 (Homo sapiens) (UniProt P23458); details: Compound concentration 1000.0 nM
[29] = target: Tyrosine-protein kinase ITK/TSK (Homo sapiens) (UniProt Q08881); details: Compound concentration 1000.0 nM
[30] = target: Non-receptor tyrosine-protein kinase TNK1 (Homo sapiens) (UniProt Q13470); details: Compound concentration 1000.0 nM
[31] = target: Serine/threonine-protein kinase ULK3 (Homo sapiens) (UniProt Q6PHR2); details: Compound concentration 1000.0 nM
[32] = target: Dual serine/threonine and tyrosine protein kinase (Homo sapiens) (UniProt Q6XUX3); details: Compound concentration 1000.0 nM
[33] = target: MAP kinase-interacting serine/threonine-protein kinase 1 (Homo sapiens) (UniProt Q9BUB5); details: Compound concentration 1000.0 nM
MAP kinase-interacting serine/threonine-protein kinase 1 (Homo sapiens), sequence (Q9BUB5 whole entry, looked up): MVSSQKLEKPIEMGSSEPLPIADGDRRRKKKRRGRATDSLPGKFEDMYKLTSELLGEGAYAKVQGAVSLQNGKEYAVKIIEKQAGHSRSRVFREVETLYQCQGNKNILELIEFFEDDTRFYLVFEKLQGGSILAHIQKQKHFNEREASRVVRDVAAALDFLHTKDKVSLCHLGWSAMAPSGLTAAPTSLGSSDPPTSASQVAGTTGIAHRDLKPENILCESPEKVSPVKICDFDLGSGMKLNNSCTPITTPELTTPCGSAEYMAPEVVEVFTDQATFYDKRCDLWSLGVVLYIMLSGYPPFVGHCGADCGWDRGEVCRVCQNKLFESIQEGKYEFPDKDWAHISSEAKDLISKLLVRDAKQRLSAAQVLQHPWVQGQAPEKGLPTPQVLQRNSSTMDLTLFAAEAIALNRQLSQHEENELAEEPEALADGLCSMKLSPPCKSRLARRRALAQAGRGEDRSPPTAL

[34] = target: Membrane-associated tyrosine- and threonine-specific cdc2-inhibitory kinase (Homo sapiens) (UniProt Q99640); details: Compound concentration 1000.0 nM
Membrane-associated tyrosine- and threonine-specific cdc2-inhibitory kinase (Homo sapiens), sequence (Q99640 whole entry): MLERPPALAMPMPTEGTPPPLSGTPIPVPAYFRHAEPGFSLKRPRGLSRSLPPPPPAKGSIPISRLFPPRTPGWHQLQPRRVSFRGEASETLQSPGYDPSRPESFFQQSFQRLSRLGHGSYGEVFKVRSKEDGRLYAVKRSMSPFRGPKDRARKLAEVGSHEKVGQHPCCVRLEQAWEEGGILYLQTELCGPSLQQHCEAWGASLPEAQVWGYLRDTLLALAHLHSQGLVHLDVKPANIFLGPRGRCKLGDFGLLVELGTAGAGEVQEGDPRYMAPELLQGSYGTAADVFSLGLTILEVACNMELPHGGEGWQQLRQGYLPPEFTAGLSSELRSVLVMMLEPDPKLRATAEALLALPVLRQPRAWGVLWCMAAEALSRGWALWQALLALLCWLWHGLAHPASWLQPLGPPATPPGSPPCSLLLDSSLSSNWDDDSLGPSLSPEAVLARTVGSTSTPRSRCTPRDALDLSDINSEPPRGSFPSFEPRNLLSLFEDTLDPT

[35] = target: Ribosomal protein S6 kinase alpha-1 (Homo sapiens) (UniProt Q15418); details: Compound concentration 1000.0 nM
[36] = target: Mitogen-activated protein kinase kinase kinase 14 (Homo sapiens) (UniProt Q99558); details: Compound concentration 1000.0 nM
[37] = target: STE20-like serine/threonine-protein kinase (Homo sapiens) (UniProt Q9H2G2); details: Compound concentration 1000.0 nM
[38] = tested on: Tyrosine-protein kinase ABL1 (Homo sapiens), P00519 [Q252H]; details: Compound concentration 1000.0 nM
[39] = target: Serine/threonine-protein kinase MRCK alpha (Homo sapiens) (UniProt Q5VT25); details: Compound concentration 1000.0 nM
[40] = target: STE20/SPS1-related proline-alanine-rich protein kinase (Homo sapiens) (UniProt Q9UEW8); details: Compound concentration 1000.0 nM
[41] = target: Receptor-interacting serine/threonine-protein kinase 2 (Homo sapiens) (UniProt O43353); details: Compound concentration 1000.0 nM
[42] = target: Epidermal growth factor receptor (Homo sapiens) (UniProt P00533); details: Compound concentration 1000.0 nM
[43] = tested on: Phosphatidylinositol 4,5-bisphosphate 3-kinase catalytic subunit alpha isoform (Homo sapiens), P42336 [H1047L]; details: Compound concentration 1000.0 nM
[44] = target: Receptor tyrosine-protein kinase erbB-4 (Homo sapiens) (UniProt Q15303); details: Compound concentration 1000.0 nM

Serine/threonine-protein kinase PRP4 homolog (Homo sapiens), sequence (Q13523 whole entry): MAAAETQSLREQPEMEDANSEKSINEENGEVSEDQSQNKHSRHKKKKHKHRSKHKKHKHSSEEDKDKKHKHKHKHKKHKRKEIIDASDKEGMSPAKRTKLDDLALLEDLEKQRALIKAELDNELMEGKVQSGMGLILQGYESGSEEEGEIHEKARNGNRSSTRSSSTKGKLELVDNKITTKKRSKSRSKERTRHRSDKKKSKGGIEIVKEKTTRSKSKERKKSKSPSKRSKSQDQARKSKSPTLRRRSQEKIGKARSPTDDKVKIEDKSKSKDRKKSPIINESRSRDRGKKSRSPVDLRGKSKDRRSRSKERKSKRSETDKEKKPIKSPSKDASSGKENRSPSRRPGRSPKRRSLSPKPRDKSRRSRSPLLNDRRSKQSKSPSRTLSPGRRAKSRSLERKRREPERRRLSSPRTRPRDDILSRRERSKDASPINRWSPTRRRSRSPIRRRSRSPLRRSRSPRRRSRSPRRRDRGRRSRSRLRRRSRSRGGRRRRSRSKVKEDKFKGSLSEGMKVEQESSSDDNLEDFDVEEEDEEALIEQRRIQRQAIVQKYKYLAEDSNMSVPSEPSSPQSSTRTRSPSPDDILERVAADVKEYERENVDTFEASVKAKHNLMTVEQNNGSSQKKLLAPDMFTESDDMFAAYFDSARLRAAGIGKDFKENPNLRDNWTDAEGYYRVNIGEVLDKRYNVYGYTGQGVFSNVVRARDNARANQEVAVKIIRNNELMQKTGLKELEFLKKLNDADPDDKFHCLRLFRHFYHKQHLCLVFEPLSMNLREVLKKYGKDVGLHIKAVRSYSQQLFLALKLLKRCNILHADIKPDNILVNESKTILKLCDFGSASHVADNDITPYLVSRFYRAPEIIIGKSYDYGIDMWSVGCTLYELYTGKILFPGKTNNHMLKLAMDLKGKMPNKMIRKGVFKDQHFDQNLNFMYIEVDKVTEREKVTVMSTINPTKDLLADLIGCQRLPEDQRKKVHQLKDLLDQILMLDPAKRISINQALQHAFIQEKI

`CCC(=O)N[C@H]1CC[C@@H](C(=O)N(C)c2ccc(-c3nc4ccccc4o3)cc2)C1` [BI 99179] gave a residual activity [1] of 100%, a residual activity [2] of 99% and a residual activity [3] of 93%. It also gave a residual activity [4] of 69%, a residual activity [5] of 100% and a residual activity [6] of 99%. It also gave a residual activity [7] of 92%, a residual activity [8] of 89% and a residual activity [9] of 54%. For the same compound, the inhibition [10] was 33.6%, the residual activity [11] was 100% and the residual activity [12] was 100%. The residual activity [13] was 66%, the residual activity [14] was 100% and the residual activity [15] was 89%. The residual activity [16] was 100%, the residual activity [17] was 90% and the residual activity [18] was 63%. It also gave a residual activity [19] of 89%, a residual activity [20] of 100% and a residual activity [21] of 82%. It also gave a residual activity [22] of 94%, a residual activity [23] of 92% and a residual activity [24] of 74%. The residual activity [25] was 98%, the residual activity [26] was 74% and the residual activity [27] was 93%. It also gave a residual activity [28] of 100%, a residual activity [29] of 100% and a residual activity [30] of 100%. For the same compound, the residual activity [31] was 67%, the residual activity [32] was 87% and the residual activity [33] was 80%. For the same compound, the residual activity [34] was 99%, the residual activity [35] was 99% and the residual activity [36] was 92%. It also gave a residual activity [37] of 92%, a residual activity [38] of 78% and a residual activity [39] of 87%. For the same compound, the residual activity [40] was 100%, the residual activity [41] was 100% and the residual activity [42] was 100%. The residual activity [43] was 78% and the residual activity [44] was 100%.
With `CCC(=O)N[C@@H]1CC[C@H](C(=O)N(C)c2ccc(-c3nc4ccccc4o3)cc2)C1` [BI 99990] the residual activity [1] was 100%, the residual activity [2] was 77% and the residual activity [3] was 100%. It also gave a residual activity [4] of 62%, a residual activity [5] of 89% and a residual activity [6] of 100%. For the same compound, the residual activity [7] was 100%, the residual activity [8] was 87% and the residual activity [9] was 45%. For the same compound, the inhibition [10] was 62.9%, the residual activity [11] was 100% and the residual activity [12] was 100%. It also gave a residual activity [13] of 100%, a residual activity [14] of 93% and a residual activity [15] of 100%. It also gave a residual activity [16] of 100%, a residual activity [17] of 100% and a residual activity [18] of 100%. The residual activity [19] was 84%, the residual activity [20] was 88% and the residual activity [21] was 82%. The residual activity [22] was 100%, the residual activity [23] was 100% and the residual activity [24] was 92%. The residual activity [25] was 100%, the residual activity [26] was 84% and the residual activity [27] was 100%. For the same compound, the residual activity [28] was 100%, the residual activity [29] was 100% and the residual activity [30] was 100%. It also gave a residual activity [31] of 66%, a residual activity [32] of 93% and a residual activity [33] of 95%. It also gave a residual activity [34] of 100%, a residual activity [35] of 100% and a residual activity [36] of 100%. The residual activity [37] was 100%, the residual activity [38] was 87% and the residual activity [39] was 100%. The residual activity [40] was 73%, the residual activity [41] was 85% and the residual activity [42] was 100%. The residual activity [43] was 97% and the residual activity [44] was 100%.
